Results: PubChem BioAssay AID489035 (Sanford-Burnham Center for Chemical Genomics, 2010)
Active and inactive are the calls of the source. How the calls were made is not given here.

System: Jurkat NF-kB reporter, TCR-induced, luciferase luminescence
Test: inhibitors of TCR-driven NF-kB activation, dose response, Jurkat cells, luminescence (AID 489035)

SMILES | IC50
COc1cccc(C2CC(=O)Nc3cc4c(cc32)CCC4)c1 (centres undefined) | > 80 µM (inactive)
CCCC(=O)NC(c1ccc(C)cc1)c1ccc2cccnc2c1O (centres undefined) | 8.63 µM
Cc1c(C(=O)OCc2ccccc2)[nH]c2c1C(=O)CC(c1ccco1)C2 (centres undefined) | > 80 µM (inactive)
NC(=O)CC(NC(=O)c1ccc(Br)cc1)c1ccc(N2CCCCCC2)c([N+](=O)[O-])c1 (centres undefined) | 2.54 µM
Cc1cccc(NS(=O)(=O)c2ccc(-c3cnc(C4CC4)o3)cc2)c1 | > 80 µM (inactive)
CN=c1scc(-c2cccs2)n1/N=C/c1ccccc1O | 2.09 µM
Cc1noc(C)c1CSc1nc2ccccc2c(=O)n1-c1ccccc1 | 30.8 µM (inactive)
Cc1ccc(Nc2nc(-c3c(C)nc4ncccn34)cs2)cc1 | 18.7 µM
Cn1nc([N+](=O)[O-])nc1Sc1nnc(-c2ccccc2)o1 | 7.97 µM
O=C(c1cc(-c2ccncc2)nc2c(Cl)cccc12)N1CCN(c2ccccc2F)CC1 | > 80 µM (inactive)
Cc1ccccc1NC1=C/C(=N\S(=O)(=O)c2cccs2)c2ccccc2C1=O | 1.25 µM
Cn1nc(-c2ccccn2)nc2c(=O)n(C)c(=O)nc1-2 | 12.4 µM
COc1cc(C2C3=C(Nc4ncnn42)c2ccccc2CC3)cc(OC)c1OC (centres undefined) | 6.79 µM
Cc1ccc(C(=O)c2cc([N+](=O)[O-])ccc2N2CCOCC2)c(C)c1 | 54.5 µM (inactive)
O=C1CC(c2cccc(Br)c2)c2cc3c(cc2N1)CCC3 (centres undefined) | 63.9 µM (inactive)
CCc1ccc(/C=N/NC(=O)c2cc(-c3ccncc3)nc3ccccc23)s1 | > 80 µM (inactive)
CCOC(=O)c1[nH]c(C)c(C(=O)c2cc(F)ccc2F)c1C | > 80 µM (inactive)
Cc1ccc(-c2cc(-c3ccc(C)cc3)[n+](-c3ccccc3)c(-c3ccc(C)cc3)c2)cc1 | 6.13 µM
COc1cc(/C=C2/SC(=Nc3ccc(O)cc3)NC2=O)ccc1O | 10.6 µM
CC(=O)c1ccc(Oc2cc(C)nc(-n3nc(C)cc3C)n2)cc1 | 13.5 µM
O=C(Nc1ccc(CSc2ccccc2)cc1)c1ccc(CN2CCOCC2)cc1 | > 80 µM (inactive)

SMILES | IC50
CCN(CC)c1ccc(NC(=O)c2cc(OC)cc(OC)c2)c(C)c1 | > 80 µM (inactive)
Cc1cc(C)cc(NC(=O)c2ccc([N+](=O)[O-])o2)c1 | 0.95 µM
O=C(OCCN1C(=O)c2cccc3c(N4CCOCC4)ccc(c23)C1=O)c1ccc(Cl)cc1 | > 80 µM (inactive)
CCOc1ccccc1N1CC(O)=C(c2nc3ccccc3s2)C1=N | 26.7 µM (inactive)
COc1cc(C(=O)OCCc2cc3ccccc3c(=O)o2)cc(OC)c1OC | 21.6 µM (inactive)
CCCCCOC(=O)c1[nH]c2c(c1C)C(=O)CC(c1ccco1)C2 (centres undefined) | > 80 µM (inactive)
CC(C)(C)c1cc(C=C(C#N)C#N)cc(C(C)(C)C)c1O | > 80 µM (inactive)
Cc1cc(C(C)(C)C)cc(C)c1C[n+]1ccc2ccccc2c1 | 58.9 µM (inactive)
C=C(C)COc1ccc(-c2n[nH]c(C)c2-c2ccc(OC)c(OC)c2)c(O)c1 | 21.1 µM (inactive)
COc1ccccc1CNS(=O)(=O)c1ccc(-c2cnc(C3CC3)o2)cc1 | 31.3 µM (inactive)
O=C(CSc1nnc(Cn2nnc3ccccc32)o1)N(Cc1ccc(F)cc1)c1ccccc1 | > 80 µM (inactive)
COc1ccc(C2=Nn3c(nnc3-c3ccccc3OC)SC2)cc1OC1CCCC1 | 15.3 µM
Cc1ccc(C(=O)Nc2cnc3ccccc3c2)cc1 | 0.37 µM
COc1cc(Nc2ccc(C)cc2)c([N+](=O)[O-])nc1[N+](=O)[O-] | > 80 µM (inactive)
COc1ccc(C(C(=O)NC2CCCCC2)N(C(=O)CCl)c2ccc(C)cc2)cc1 (centres undefined) | 0.33 µM
O=C(Nc1ccc(S(=O)(=O)N2CCCCC2)cc1)c1ccc(CN2CCOCC2)cc1 | 16.6 µM
CCOc1ccccc1C1CC(=O)Nc2cc3c(cc21)OCCO3 (centres undefined) | 3.96 µM
CN(C)c1ccc2c(c1)OC(N)=C(C#N)C2c1cccc(F)c1 (centres undefined) | 50.2 µM (inactive)
CC#CC(=O)N1CCC(n2nccc2NC(=O)c2ccc3c(c2)OCO3)CC1 | > 80 µM (inactive)
O=C(N/N=C/c1ccccc1Cl)c1[nH]c2ccc(Br)cc2c1-c1ccccc1 | 6.27 µM
COc1ccccc1NC(=O)c1cnc(Nc2ccccc2OC)c2ccccc12 | > 80 µM (inactive)

SMILES | IC50
CC(C)(C)OC(=O)NCCCCCc1cn(CC(=O)NCCCCCCCCCCC(=O)N2CCN(C(=O)OC(C)(C)C)CC2)nn1 | > 80 µM (inactive)
CCCC(=O)Nc1nc2ccc(NC(=O)c3c(F)c(F)c(OC)c(F)c3F)cc2s1 | 11.5 µM
COc1ccccc1C1=NOC(COc2ccc3c(C)cc(=O)oc3c2)C1 (centres undefined) | > 80 µM (inactive)
CCOc1ccc2c(c1)OC(c1ccc(C)cc1)(C(F)(F)F)NC2=O (centres undefined) | > 80 µM (inactive)
O=C(Nc1ccc(N2CCOCC2)cc1)c1ccc(Cl)c(S(=O)(=O)N2CCCCC2)c1 | > 80 µM (inactive)
CCn1ncc(C2=NOC(C(=O)NCc3ccc(Cl)cc3)C2)c1C (centres undefined) | > 80 µM (inactive)
CCCCCn1c2c(c(=N)c3ccccc31)CCC2 | > 80 µM (inactive)
C=CCn1c(C)cc(C2=NNC(=NCC)SC2)c1C | < 0.16 µM
O=C(Nc1nc(-c2ccccc2)cs1)c1ccc(N2CCOCC2)c([N+](=O)[O-])c1 | > 80 µM (inactive)
COc1ccc(/C=C/C(=O)c2cc(F)ccc2OC(=O)c2ccccc2)cc1OC | 2.49 µM
Cc1ccc(S(=O)(=O)NCc2ccncc2)cc1C | > 80 µM (inactive)
COc1cc([C@@H]2c3cc4c(cc3[C@@H](OC)[C@H]3COC(=O)[C@H]23)OCO4)cc(OC)c1O | > 80 µM (inactive)
COC(=O)CCC(=O)NC(=S)Nc1sc(C)c(C)c1C(N)=O | > 80 µM (inactive)
O=C(c1ccccc1)c1cc([N+](=O)[O-])ccc1N1CCOCC1 | > 80 µM (inactive)
COc1cc([C@@H]2c3cc4c(cc3[C@H](O)[C@H]3COC(=O)[C@H]23)OCO4)cc(OC)c1OC | > 80 µM (inactive)
Cc1cc(O)c2c(c1O)C(=O)[C@]13C(=C2O)C(=O)[C@@H]2[C@@H](O)[C@H]1[C@@H]1[C@H](O)[C@H]3C(=O)C3=C(O)c4c(O)cc(C)c(O)c4C(=O)[C@]312 | < 0.16 µM
C=C(C)COc1ccc(-c2[nH]ncc2-c2ccc(OC)c(OC)c2)c(O)c1 | 13.6 µM
O=C1c2c(O)ccc(O)c2C(=O)c2c(NCCNCCO)ccc(NCCNCCO)c21 | 2.23 µM
O=C(Nc1ccc(N2CCN(C(=O)c3ccc(Cl)cc3)CC2)cc1)c1ccc2c(c1)OCCO2 | > 80 µM (inactive)
COC(=O)c1c(NC(=O)c2ccc([N+](=O)[O-])o2)sc2c1CCN(C(C)C)C2 | 6.76 µM
COc1cc(NC(=O)N2CCNC2=O)cc(C(=O)Nc2cccc(C(F)(F)F)c2)c1 | > 80 µM (inactive)

SMILES | IC50
C/C(=N\NC(=O)c1cc(C)nc2ccccc12)c1ccccn1 | > 80 µM (inactive)
Cn1ncnc2c(=O)n(C)c(=O)nc1-2 | 0.51 µM
COc1ccc(C2=NOC(C(=O)NCc3ccc(F)cc3)C2)cc1OC (centres undefined) | > 80 µM (inactive)
CCCc1cc(C(=O)N/N=C/c2ccc(CC)s2)c2ccccc2n1 | 13 µM
Cc1nc2c(=O)n(C)c(=O)nc-2n(C)n1 | 0.47 µM
C=C1C(=O)O[C@H]2C[C@@H](C)[C@@H]3C=CC(=O)[C@@]3(C)C[C@H]12 | 1.26 µM
CCOc1ccccc1C(=O)Nc1ccc2nc(N3CCN(c4ncccn4)CC3)cc(C)c2c1 | 4.28 µM
CC(=O)O[C@H]1C(=O)[C@@]2(C)C([C@H](OC(=O)c3ccccc3)[C@]3(O)C[C@H](OC(=O)[C@H](O)[C@@H](NC(=O)Cc4ccccc4)c4ccccc4)C(C)=C1C3(C)C)[C@]1(OC(C)=O)CO[C@@H]1C[C@@H]2O (some centres undefined) | > 80 µM (inactive)
Cc1ccc(/C=N/NC(=O)c2c(C)nc3ccc(Br)cn23)cc1 | > 80 µM (inactive)
O=c1oc2ccccc2cc1-c1cn(-c2ccccc2)c(=S)[nH]1 | 13 µM
COc1ccccc1NC(=O)C1=C(C)Nc2nc3ccccc3n2C1c1cccs1 (centres undefined) | 52.3 µM (inactive)
O=C(Nc1ccc(N2CCCCC2)cc1)c1ccccn1 | 0.46 µM
CCCOC(=O)c1[nH]c2c(c1C)C(=O)CC(c1cccs1)C2 (centres undefined) | 32.1 µM (inactive)
Cc1nc(NCc2ccco2)c2c(C)c(C)sc2n1 | 3.1 µM
CC(=O)c1sc2c(c1OC(=O)c1ccc(Cl)cc1Cl)c(=O)n(-c1ccccc1)c(=S)n2-c1ccccc1 | 1.35 µM
COc1cc(C(=O)Nc2ccc3c(c2)CCN3C(C)=O)cc(OC)c1OC | > 80 µM (inactive)
COc1ccc([C@H]2CC(=O)C=C(c3ccc(OC)cc3OC)C2)cc1 | > 80 µM (inactive)
CC(C)(C)c1ccc(C(=O)Nc2ccc(Oc3cccnc3)nc2)cc1 | > 80 µM (inactive)
Cc1ccc(-n2ncc3c(N4CCN(c5ccccc5)CC4)ncnc32)c(C)c1 | 4.9 µM
O=C(Nc1ccc(S(=O)(=O)N2CCCC2)cc1)c1ccc(CN2CCc3ccccc3C2)cc1 | > 80 µM (inactive)
Nc1nc2n[nH]nc2c(=O)[nH]1 | > 80 µM (inactive)
